Test results as given in patent publication US7193108B2, “Phenylpropionic acid derivatives” (Ajinomoto Co., Inc., priority 2001, dated 2007).

biological target: T1, integrin α 4 β 7 (Homo sapiens, UniProt P13612+P26010); experiment: VCAM antagonistic activity (VCAM-1/α 4 β 7 binding assay): binding of RPMI-8866 cells to VCAM-1; type: cell-based; conditions: fluorescent RPMI-8866 cells binding to recombinant human VCAM-1, 4 mM MnCl2, room temperature 30 minutes
T1 construct: lymphoma cell strain RPMI-8866 of human B cells, known to express integrin α 4 β 7; endogenous in cells; host or cells: RPMI-8866 (human B cell lymphoma line)
T1 sequence (P13612 34-1032): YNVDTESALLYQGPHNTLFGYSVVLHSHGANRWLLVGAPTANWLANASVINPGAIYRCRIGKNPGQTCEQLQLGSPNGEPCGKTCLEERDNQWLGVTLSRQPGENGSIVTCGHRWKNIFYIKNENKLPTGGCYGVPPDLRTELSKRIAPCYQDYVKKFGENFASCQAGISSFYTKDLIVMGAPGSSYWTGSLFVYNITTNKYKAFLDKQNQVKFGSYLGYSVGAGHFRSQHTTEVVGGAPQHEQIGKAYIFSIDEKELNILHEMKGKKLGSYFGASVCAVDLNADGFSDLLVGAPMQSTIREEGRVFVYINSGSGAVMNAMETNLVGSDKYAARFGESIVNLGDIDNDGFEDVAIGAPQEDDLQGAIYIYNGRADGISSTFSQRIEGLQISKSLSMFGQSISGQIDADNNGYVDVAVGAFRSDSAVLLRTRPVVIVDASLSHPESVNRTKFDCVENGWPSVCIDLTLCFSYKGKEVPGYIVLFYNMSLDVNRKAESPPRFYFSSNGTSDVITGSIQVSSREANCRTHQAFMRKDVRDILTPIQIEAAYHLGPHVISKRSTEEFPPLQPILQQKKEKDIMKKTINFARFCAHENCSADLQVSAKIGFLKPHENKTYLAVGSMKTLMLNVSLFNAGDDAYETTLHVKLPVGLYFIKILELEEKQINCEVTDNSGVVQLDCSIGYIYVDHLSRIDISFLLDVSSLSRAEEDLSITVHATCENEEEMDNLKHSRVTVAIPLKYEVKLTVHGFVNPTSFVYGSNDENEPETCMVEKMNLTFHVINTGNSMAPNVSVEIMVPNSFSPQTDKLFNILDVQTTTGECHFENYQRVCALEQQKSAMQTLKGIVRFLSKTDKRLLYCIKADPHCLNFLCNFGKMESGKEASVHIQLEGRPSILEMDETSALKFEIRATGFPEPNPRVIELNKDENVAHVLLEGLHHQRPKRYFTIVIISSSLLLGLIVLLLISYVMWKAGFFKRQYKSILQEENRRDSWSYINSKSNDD
T1 sequence (P26010 20-798): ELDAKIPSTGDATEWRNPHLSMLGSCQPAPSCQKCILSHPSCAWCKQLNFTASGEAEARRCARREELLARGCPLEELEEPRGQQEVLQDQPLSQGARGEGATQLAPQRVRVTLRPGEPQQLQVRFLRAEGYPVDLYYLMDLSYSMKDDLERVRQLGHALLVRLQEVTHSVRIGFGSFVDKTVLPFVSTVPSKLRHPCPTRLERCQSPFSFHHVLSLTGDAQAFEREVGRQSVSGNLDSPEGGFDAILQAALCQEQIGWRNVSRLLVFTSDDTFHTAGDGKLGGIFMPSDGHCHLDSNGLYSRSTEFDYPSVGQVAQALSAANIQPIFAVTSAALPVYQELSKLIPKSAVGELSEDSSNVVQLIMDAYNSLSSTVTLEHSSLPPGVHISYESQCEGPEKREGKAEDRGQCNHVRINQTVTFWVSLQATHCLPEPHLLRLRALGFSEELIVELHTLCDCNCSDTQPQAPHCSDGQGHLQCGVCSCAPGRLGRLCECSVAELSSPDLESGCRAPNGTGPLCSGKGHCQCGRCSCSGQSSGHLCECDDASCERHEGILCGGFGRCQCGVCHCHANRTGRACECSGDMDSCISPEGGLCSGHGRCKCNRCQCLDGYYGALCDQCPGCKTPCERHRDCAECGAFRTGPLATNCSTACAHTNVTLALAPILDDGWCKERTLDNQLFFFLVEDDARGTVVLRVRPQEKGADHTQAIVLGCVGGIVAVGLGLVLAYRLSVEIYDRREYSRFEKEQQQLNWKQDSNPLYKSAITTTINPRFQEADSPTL
Experimental: (Test Example) VCAM Antagonistic Activity (VCAM-1/α 4 β 7 Binding Assay)
The capacity of a test substance antagonistic to the binding of lymphoma cell strain RPMI-8866 of human B cells, known to express integrin α 4 β 7, to VCAM-1 was determined.
100 μl/well of a solution (500 ng/ml) of recombinant human VCAM-1 (R & D systems) solution diluted with buffer A (0.1 M NaHCO3, pH 9.6) was added to a micro titer plate having 96 wells (Nunc Maxisorp). After the incubation at 4° C. overnight, unbound VCAM-1 was removed by washing once with PBS. After completion of the washing, a buffer (buffer B) obtained by diluting Block Ace (Dainippon Pharmaceutical Co., Ltd.) with PBS to ¼ concentration was added in an amount of 150 μl/well. After the incubation at room temperature for 1 hour, buffer B was removed and the plate was washed with PBS once.
RPMI-8866 cells were incubated in Dulbecco modified Eagle medium containing 10 μg/ml of Calcein-AM (Wako Pure Chemical Industries, Ltd.) (SIGMA, hereinafter referred to as “DMEM”) at 37° C. for 30 minutes to label with fluorescence. The cells were again suspended in a binding buffer (20 mM HEPES, DMEM containing 0.1% BSA) containing 4 mM of MnCl2.
50 μl of a test substance of various concentrations obtained by the dilution with the binding buffer was added to the plate. Immediately thereafter, 50 μl (final volume: 100 μl/well) of the fluorescent RPMI-8866 cells (4×10^6 cells/ml) were added thereto, and they were incubated at room temperature for 30 minutes. After the shaking on a plate shaker (IKA MTS-4) at 800 rpm for 30 seconds, the solution was immediately removed to remove the unbound cells. The fluorescence quantity of the bound cells remaining in the wells was determined with a fluorescent plate reader (Wallac 1420 ARVO multi-label counter) (filter excitation wave length: 485 nm, emission wave length: 535 nm). The fluorescent strength thus obtained is proportional to the number of RPMI-8866 cells bound to VCAM-1 and remaining on the plate. The binding rate of each test material in various concentrations was determined while the fluorescent strength of the test material-free well was determined to be 100%. The concentration IC50 for the 50% binding inhibition was calculated.
The antagonistic activity is shown as A when IC50 is 0.8 μmol/L or less, B when IC50 is above 0.8 μmol/L and 4 μmol/L or less, C when IC50 is above 4 μmol/L and 20 μmol/L or less, and D when IC50 is above 20 μmol/L and 100 μmol/L or less.

| SMILES | IC50 [µM] |
| --- | --- |
| Cn1c(=O)n(-c2ccc(CC(CC(O)c3c(Cl)cccc3Cl)C(=O)O)cc2)c(=O)c2ccccc21 (stereo not drawn) [Example 7, 4-(2,6-dichlorophenyl)-4-hydroxy-2-[4-(1-methyl-2,4-dioxo-1,2,3,4-tetrahydroquinazoline-3-yl)benzyl]butanoic acid] | 20 to 100 |
| Cn1c(=O)n(-c2ccc(CC(CC(=O)c3c(Cl)cccc3Cl)C(=O)O)cc2)c(=O)c2ccccc21 (stereo not drawn) [Example 2, 4-(2,6-dichlorophenyl)-2-[4-(1-methyl-2,4-dioxo-1,2,3,4-tetrahydroquinazoline-3-yl)benzyl]-4-oxobutanoic acid] | ≤ 0.8 |
| Cn1c(=O)n(-c2ccc(CC(CC(=O)c3ccccc3)C(=O)O)cc2)c(=O)c2ccccc21 (stereo not drawn) [Example 1, 4-phenyl-2-[4-(1-methyl-2,4-dioxo-1,2,3,4-tetrahydroquinazoline-3-yl)benzyl]-4-oxobutanoic acid] | 20 to 100 |
| Cn1c(=O)n(-c2ccc(/C=C(\CC(=O)c3c(Cl)cccc3Cl)C(=O)O)cc2)c(=O)c2ccccc21 [Example 5, (E)-2-[2-(2,6-dichlorophenyl)-2-oxoethyl]-3-[4-(1-methyl-2,4-dioxo-1,2,3,4-tetrahydroquinazoline-3-yl)phenyl]acrylic acid] | ≤ 0.8 |
| COC(=O)c1ccccc1NC(=O)Nc1ccc(CC(CC(=O)c2c(Cl)cccc2Cl)C(=O)O)cc1 (stereo not drawn) [Example 6, 4-(2,6-dichlorophenyl)-2-[4-[[(2-methoxycarbonylphenyl)amino]carbonylamino]benzyl]-4-oxobutanoic acid] | 20 to 100 |
| Cn1c(=O)n(-c2ccc(CC(CC(=O)c3c(F)cccc3F)C(=O)O)cc2)c(=O)c2ccccc21 (stereo not drawn) [Example 3, 4-(2,6-difluorophenyl)-2-[4-(1-methyl-2,4-dioxo-1,2,3,4-tetrahydroquinazoline-3-yl)benzyl]-4-oxobutanoic acid] | 0.8 to 4 |
